Several values for one entry are separate records, joined by “and”; a condition that tells them apart may be missing. Identical values can stand only once.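 Tested at 5 concentrations; 48 h exposure; 96-well plates; endpoints linearly interpolated, else capped at highest concentration. The concentration for 50% growth inhibition is given as GI50. TGI is the concentration that stops growth completely.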
What was measured:
Assay in all cases: NCI anticancer screen, dose series, 48 h
HOP-92 NSCLC = test system: HOP-92 NSCLC
UACC-62 melanoma = test system: UACC-62 melanoma
CCRF-CEM leukemia = test system: CCRF-CEM leukemia
SR leukemia = test system: SR leukemia
HT29 colon = test system: HT29 colon
HCT-116 colon = test system: HCT-116 colon
COLO 205 colon = test system: COLO 205 colon
TK-10 renal = test system: TK-10 renal
A498 renal = test system: A498 renal
NCI/ADR-RES ovarian = test system: NCI/ADR-RES ovarian

CC(=O)c1c2c(cc3c1CC1(C3)Cc3cc4c(c(C(=O)O)c3C1)CCC4)CCC2 (stereo not given)
TGI (HOP-92 NSCLC): 81.2 µM | TGI (UACC-62 melanoma): 78.7 µM | TGI (CCRF-CEM leukemia): 69.7 µM | TGI (SR leukemia): 80.2 µM | TGI (HT29 colon): > 100 µM | TGI (HCT-116 colon): 67.8 µM | TGI (COLO 205 colon): 68.1 µM | TGI (TK-10 renal): > 100 µM

O=C1CCC(=O)c2sccc2N1
TGI (HOP-92 NSCLC): > 100 µM | TGI (CCRF-CEM leukemia): > 100 µM | TGI (HT29 colon): > 100 µM | TGI (A498 renal): > 100 µM | TGI (HCT-116 colon): > 100 µM | TGI (COLO 205 colon): > 100 µM | TGI (TK-10 renal): > 100 µM

CC1=C(N2CC2)C(=O)c2ccccc2C1=O
TGI (UACC-62 melanoma): 2.05 µM | TGI (CCRF-CEM leukemia): 15.5 µM | TGI (SR leukemia): 0.279 µM | TGI (HT29 colon): 3.07 µM | TGI (NCI/ADR-RES ovarian): 3.14 µM | TGI (HCT-116 colon): 12 µM | TGI (COLO 205 colon): 2.05 µM | TGI (TK-10 renal): 6.48 µM

O=C(/C=C/C1C(=O)NC(=O)NC1=O)CC(=O)C(=O)Nc1cc(Cl)c(Cl)cc1Cl
TGI (UACC-62 melanoma): > 100 µM | TGI (CCRF-CEM leukemia): > 100 µM | TGI (SR leukemia): > 100 µM | TGI (HT29 colon): > 100 µM | TGI (A498 renal): > 100 µM | TGI (HCT-116 colon): > 100 µM | TGI (COLO 205 colon): > 100 µM | TGI (TK-10 renal): > 100 µM

O=C1C=Cc2ncccc2C1=O
TGI (HOP-92 NSCLC): 42.5 µM | TGI (UACC-62 melanoma): 31.1 µM | TGI (CCRF-CEM leukemia): 15.2 µM | TGI (HT29 colon): 43.4 µM | TGI (A498 renal): > 91.5 µM | TGI (HCT-116 colon): 31.1 µM | TGI (COLO 205 colon): 32.5 µM | TGI (TK-10 renal): > 58.8 µM

CC(=O)[C-](C(C)=O)c1ccccc1.CC(=O)[C-](C(C)=O)c1ccccc1.CC(=O)[C-](C(C)=O)c1ccccc1.[Cl-].[Zr+4]
GI50 (HOP-92 NSCLC): 44.5 µM | TGI (HOP-92 NSCLC): > 100 µM | GI50 (UACC-62 melanoma): > 100 µM | TGI (UACC-62 melanoma): > 100 µM | GI50 (HT29 colon): > 100 µM | TGI (HT29 colon): > 100 µM | GI50 (A498 renal): > 100 µM | TGI (A498 renal): > 100 µM | GI50 (HCT-116 colon): > 100 µM | TGI (HCT-116 colon): > 100 µM | GI50 (COLO 205 colon): > 100 µM | TGI (COLO 205 colon): > 100 µM | GI50 (TK-10 renal): > 100 µM | TGI (TK-10 renal): > 100 µM

CCN(CC)Cc1cc(Nc2c3ccccc3nc3cc(Cl)ccc23)ccc1O
GI50 (HOP-92 NSCLC): 1.41 µM | TGI (HOP-92 NSCLC): 3.13 µM | GI50 (UACC-62 melanoma): 2.1 µM | TGI (UACC-62 melanoma): 4 µM | GI50 (CCRF-CEM leukemia): 2.59 µM | TGI (CCRF-CEM leukemia): > 100 µM | GI50 (SR leukemia): 3.08 µM | TGI (SR leukemia): > 100 µM | GI50 (HT29 colon): 0.487 µM | TGI (HT29 colon): 1.75 µM | GI50 (A498 renal): 1.73 µM | TGI (A498 renal): 3.29 µM | GI50 (HCT-116 colon): 0.967 µM | TGI (HCT-116 colon): 2.67 µM | GI50 (COLO 205 colon): 1.05 µM | TGI (COLO 205 colon): 2.3 µM | GI50 (TK-10 renal): 1.64 µM | TGI (TK-10 renal): 3.23 µM

N#CC(C(=O)CCCC(=O)Nc1ccc(Cl)cc1Cl)c1ccc(Cl)cc1 (stereo not given)
TGI (HOP-92 NSCLC): > 100 µM | TGI (UACC-62 melanoma): > 100 µM | TGI (SR leukemia): > 100 µM | TGI (HT29 colon): > 100 µM | TGI (HCT-116 colon): > 100 µM | TGI (COLO 205 colon): > 100 µM | TGI (TK-10 renal): > 100 µM

O=c1[nH]cc(C(F)(C(F)(F)F)C(F)(F)F)c(=O)[nH]1
TGI (HOP-92 NSCLC): > 100 µM | TGI (UACC-62 melanoma): > 100 µM | TGI (CCRF-CEM leukemia): > 100 µM | TGI (HT29 colon): > 100 µM | TGI (A498 renal): > 100 µM | TGI (HCT-116 colon): > 100 µM | TGI (COLO 205 colon): > 100 µM | TGI (TK-10 renal): > 100 µM

Cc1c2ccncc2c(C)c2c1[nH]c1ccc(Cl)cc12
GI50 (HOP-92 NSCLC): 6.56 µM and 1.93 µM | TGI (HOP-92 NSCLC): 17.5 µM and 9.11 µM | GI50 (UACC-62 melanoma): 4.13 µM | TGI (UACC-62 melanoma): 11.1 µM and 17 µM | TGI (CCRF-CEM leukemia): 4.43 µM and 6.3 µM | GI50 (HT29 colon): 1.04 µM | TGI (HT29 colon): 9.24 µM and 2.52 µM | TGI (NCI/ADR-RES ovarian): 4.75 µM | TGI (A498 renal): 14.7 µM | TGI (HCT-116 colon): 2.98 µM and 5.14 µM | GI50 (COLO 205 colon): 3.09 µM | TGI (COLO 205 colon): 9.41 µM and 15 µM | TGI (TK-10 renal): 18.1 µM

CCCN1CCC=C(c2ccc(Nc3nc(Nc4ccccc4C(N)=O)c4cc[nH]c4n3)c(C)c2)C1
GI50 (HOP-92 NSCLC): 0.158 µM | TGI (HOP-92 NSCLC): 2.04 µM | GI50 (UACC-62 melanoma): 14.4 µM | TGI (UACC-62 melanoma): > 25 µM | GI50 (CCRF-CEM leukemia): 3.32 µM | TGI (CCRF-CEM leukemia): > 25 µM | GI50 (HT29 colon): 0.407 µM | TGI (HT29 colon): > 13.2 µM | GI50 (NCI/ADR-RES ovarian): > 22.4 µM | TGI (NCI/ADR-RES ovarian): > 25 µM | GI50 (A498 renal): 11.1 µM | TGI (A498 renal): > 25 µM | GI50 (HCT-116 colon): 2.56 µM | TGI (HCT-116 colon): > 25 µM | GI50 (COLO 205 colon): 2.37 µM | TGI (COLO 205 colon): 8.68 µM | GI50 (TK-10 renal): 4.61 µM | TGI (TK-10 renal): 24.4 µM

C#CCOCn1cnc2ncnc(N)c21
TGI (HOP-92 NSCLC): > 100 µM | TGI (UACC-62 melanoma): > 100 µM | TGI (CCRF-CEM leukemia): > 100 µM | TGI (SR leukemia): > 100 µM | TGI (HT29 colon): > 100 µM | TGI (A498 renal): > 100 µM | TGI (HCT-116 colon): > 100 µM | TGI (COLO 205 colon): > 100 µM | TGI (TK-10 renal): > 100 µM

S=c1c2ccccc2c(=S)n2n1CC=CC2
TGI (HOP-92 NSCLC): > 100 µM | TGI (UACC-62 melanoma): > 100 µM | TGI (CCRF-CEM leukemia): > 100 µM | TGI (HT29 colon): > 100 µM | TGI (A498 renal): > 100 µM | TGI (HCT-116 colon): > 100 µM | TGI (COLO 205 colon): > 100 µM | TGI (TK-10 renal): > 100 µM

c1ccc(-c2ccnc3c2ccc2c(-c4ccccc4)ccnc23)cc1
TGI (UACC-62 melanoma): 2.25 µM | TGI (CCRF-CEM leukemia): 2.84 µM | TGI (SR leukemia): 1.29 µM | TGI (HT29 colon): 10.8 µM | TGI (A498 renal): 6.99 µM | TGI (HCT-116 colon): 10.4 µM | TGI (COLO 205 colon): 6.71 µM | TGI (TK-10 renal): 0.994 µM

CC(C)N1C(C)[C@@H](c2ccccc2)O[P@]1(=O)CC1=CCCCC1 (stereo not given in full)
TGI (HOP-92 NSCLC): 99.6 µM | TGI (UACC-62 melanoma): > 100 µM | TGI (CCRF-CEM leukemia): > 100 µM | TGI (SR leukemia): > 100 µM | TGI (HT29 colon): > 100 µM | TGI (A498 renal): > 100 µM | TGI (HCT-116 colon): > 100 µM | TGI (COLO 205 colon): > 100 µM | TGI (TK-10 renal): > 100 µM

CC(C)(C)Sc1nnc(SC(C)(C)C)c2c(=O)[nH]nc(SC(C)(C)C)c12
TGI (HOP-92 NSCLC): 14.1 µM | TGI (UACC-62 melanoma): 22.2 µM | TGI (CCRF-CEM leukemia): 28.1 µM | TGI (SR leukemia): 19.1 µM | TGI (HT29 colon): 19.1 µM | TGI (A498 renal): 27.1 µM | TGI (HCT-116 colon): 15.9 µM | TGI (COLO 205 colon): 25.2 µM | TGI (TK-10 renal): 37.8 µM

COc1cccc2c1cc1c3c(cc4c(c32)OCO4)C(=O)N1
GI50 (HOP-92 NSCLC): 1.71 µM | TGI (HOP-92 NSCLC): 6.98 µM | GI50 (UACC-62 melanoma): 4.65 µM | TGI (UACC-62 melanoma): > 100 µM | GI50 (CCRF-CEM leukemia): 5.15 µM | TGI (CCRF-CEM leukemia): > 100 µM | GI50 (HT29 colon): 5.02 µM | TGI (HT29 colon): 73 µM | GI50 (NCI/ADR-RES ovarian): 2.71 µM | TGI (NCI/ADR-RES ovarian): 7.46 µM | GI50 (A498 renal): 0.0914 µM | TGI (A498 renal): 4 µM | GI50 (HCT-116 colon): 3.63 µM | TGI (HCT-116 colon): 13.2 µM | GI50 (COLO 205 colon): 2.3 µM | TGI (COLO 205 colon): 5.39 µM | GI50 (TK-10 renal): 2.27 µM | TGI (TK-10 renal): 6.27 µM

CCCCCCCCCCSC(=N)N
GI50 (HOP-92 NSCLC): 1.42 µM | TGI (HOP-92 NSCLC): 4.59 µM | GI50 (UACC-62 melanoma): 1.98 µM | TGI (UACC-62 melanoma): 4.45 µM | GI50 (HT29 colon): 1.42 µM | TGI (HT29 colon): 2.84 µM | GI50 (NCI/ADR-RES ovarian): 4.8 µM | TGI (NCI/ADR-RES ovarian): 22.3 µM | GI50 (A498 renal): 4.69 µM | TGI (A498 renal): 19.3 µM | GI50 (HCT-116 colon): 2.96 µM | TGI (HCT-116 colon): 10.1 µM | GI50 (COLO 205 colon): 1.55 µM | TGI (COLO 205 colon): 2.91 µM | GI50 (TK-10 renal): 1.61 µM | TGI (TK-10 renal): 4.09 µM

C/C(=N\NS(=O)(=O)c1ccc([N+](=O)[O-])cc1)c1ccc[n+]([O-])n1
TGI (HOP-92 NSCLC): 8.3 µM | TGI (UACC-62 melanoma): 2.59 µM | TGI (CCRF-CEM leukemia): > 30.1 µM | TGI (SR leukemia): 49 µM | TGI (HT29 colon): 3.98 µM | TGI (A498 renal): 4 µM | TGI (HCT-116 colon): 3.9 µM | TGI (COLO 205 colon): 6.56 µM | TGI (TK-10 renal): 25.9 µM

COc1ccc(NC(=O)C2C(=O)N(c3ccc(OC)cc3)C(=O)/C2=N\NC(N)=O)cc1 (stereo not given)
TGI (HOP-92 NSCLC): 84.9 µM | TGI (UACC-62 melanoma): 46.7 µM | TGI (HT29 colon): > 100 µM | TGI (A498 renal): 45 µM | TGI (HCT-116 colon): 46.8 µM | TGI (COLO 205 colon): > 100 µM | TGI (TK-10 renal): 70.9 µM

— PubChem BioAssay (NCI)
